Reference: ChEMBL document CHEMBL1667813, “Difluoroethylamines as an amide isostere in inhibitors of cathepsin K” (Bioorg Med Chem Lett, 2011)

Key:
[1] = Oral bioavailability in dog at 1 mg/kg, iv; format: ADME, organism-based, Canis lupus familiaris; settings: in vivo
[2] = Ratio of product of IC50 for rabbit bone resorption and IC50 for humanized rabbit cathepsin K to IC50 for rabbit cathepsin K
Homo sapiens [3] = organism: Homo sapiens; assay: Selectivity ratio of IC50 for human cathepsin F to IC50 for human cathepsin K
Homo sapiens [4] = organism: Homo sapiens; assay: Selectivity ratio of IC50 for human cathepsin B to IC50 for human cathepsin K
Homo sapiens [5] = organism: Homo sapiens; assay: Selectivity ratio of IC50 for human cathepsin L to IC50 for human cathepsin K
Cathepsin K = Cathepsin K (Homo sapiens, UniProt P43235); assay: Inhibition of humanized rabbit cathepsin K
[6] = Oral bioavailability in rat at 2 mg/kg, iv; format: ADME, organism-based; settings: in vivo
Homo sapiens [7] = organism: Homo sapiens; assay: Selectivity ratio of IC50 for human cathepsin S to IC50 for human cathepsin K
[8] = Dissociation constant, pKa of the compound; format: physicochemical
[9] = Half life in rat at 10 mg/kg, po or 2 mg/kg, iv; format: ADME, organism-based; settings: in vivo
[10] = Lipophilicity, log D of the compound; format: physicochemical; settings: octanol/water
[11] = Aqueous equilibrium solubility of the compound in water; format: physicochemical
[12] = Half life in dog at 5 mg/kg, po or 1 mg/kg, iv; format: ADME, organism-based, Canis lupus familiaris; settings: in vivo

SMILES | bioavailability [1] | IC50 [2] | Ratio IC50 (Homo sapiens [3]) | Ratio IC50 (Homo sapiens [4]) | Ratio IC50 (Homo sapiens [5]) | IC50 (Cathepsin K) | bioavailability [6] | Ratio IC50 (Homo sapiens [7]) | pKa [8] | half-life [9] | logD [10] | solubility thermodynamic [11] | half-life [12]
CC(C)(F)C[C@H](N[C@@H](c1ccc(-c2ccc(S(C)(=O)=O)cc2)cc1)C(F)(F)F)C(=O)NC1(C#N)CC1 [ODANACATIB] | 6% | 5 nM | 3980 | 5170 | 15000 | 0.2 nM | 8% | 300 |  |  |  |  | 
CC(C)C[C@H](N[C@@H](c1ccc(-c2ccc(S(C)(=O)=O)cc2)cc1)C(F)F)C(=O)NC1(C#N)CC1 |  | 10 nM | 645 | > 11900 | 894 | 0.8 nM | 100% | 1140 | 2.7 | 0.8 h | 0.11 | < 10 µg/mL | 
CC(C)(F)C[C@H](N[C@@H](c1ccc(-c2ccc(S(C)(=O)=O)cc2)cc1)C(F)F)C(=O)NC1(C#N)CC1 | 23% | 9 nM | 1920 | 2300 | 6330 | 1 nM | 22% | 210 |  | 3.8 h |  |  | 35 h
CC(C)C[C@H](N[C@@H](c1ccc(-c2ccc(S(C)(=O)=O)cc2)cc1)C(F)(F)F)C(=O)NC1(C#N)CC1 |  | 3 nM | 370 | 23600 | 1390 | 0.3 nM | 4% | 809 | < 2 | 2.6 h | 3.53 | < 10 µg/mL | 
CC(C)(F)C[C@H](N[C@@H](c1ccc(-c2ccc(C3(C(N)=O)CC3)cc2F)cc1)C(F)(F)F)C(=O)NC1(C#N)CC1 |  | 2 nM | 1380 | 4400 | 9370 | 0.3 nM |  | 1200 |  |  |  |  | 
CC(C)C[C@H](N[C@@H](c1ccc(-c2ccc(S(C)(=O)=O)cc2)cc1)C(F)F)C(=O)NCC#N |  | 15 nM | 822 | > 32600 | 869 | 0.3 nM |  | 2000 |  |  |  |  | 
CC(C)(F)C[C@H](N[C@@H](c1ccc(-c2ccc(C3(C(N)=O)CC3)cc2F)cc1)C(F)F)C(=O)NC1(C#N)CC1 |  | 4 nM | 2340 | 7230 | 12700 | 0.3 nM |  | 2880 |  |  |  |  | 
CC(C)C[C@H](N[C@@H](c1ccc(-c2ccc(C(O)C(F)(F)F)cc2)cc1)C(F)(F)F)C(=O)NC1(C#N)CC1 (stereo not given in full) |  | 21 nM |  | 5980 | 506 | 1.6 nM |  | 311 |  |  |  |  | 
CC(C)C[C@H](N[C@@H](c1ccc(-c2ccc(S(C)(=O)=O)cc2)cc1)C(F)(F)F)C(=O)NCC#N |  | 3 nM | 480 | 26200 | 1320 | 0.2 nM |  | 890 |  |  |  |  | 
CC(C)C[C@H](N[C@@H](c1ccc(-c2ccc(C(O)C(F)(F)F)cc2)cc1)C(F)F)C(=O)NC1(C#N)CC1 (stereo not given in full) |  | 32 nM | 126 | > 5180 | 785 | 1.9 nM |  | 813 |  |  |  |  | 
